Test results: patent US20210323950A1, “HERBICIDALLY ACTIVE BICYCLIC BENZOYLPYRAZOLES” (Bayer Aktiengesellschaft, priority 2018, published 2021)

Key:
Format in all cases: in vivo
[1] = tested on: Amaranthus retroflexus (AMARE); experiment: Post-emergence herbicidal action against AMARE; details: 20 g/ha, post-emergence at one-leaf stage, rated visually after about 3 weeks vs untreated controls
Experimental: (§1) AMARE: Amaranthus retroflexus 2. Post-Emergence Herbicidal Action and Crop Plant Compatibility Seeds of monocotyledonous and dicotyledonous weeds and crop plants are placed in sandy loam in plastic or organic planting pots, covered with soil and cultivated in a greenhouse under controlled growth conditions. 2 to 3 weeks after sowing, the test plants are treated at the one-leaf stage. The compounds of the invention, formulated in the form of wettable powders (WP) or as emulsion concentrates (EC), are then sprayed onto the green parts of the plants as aqueous suspension or emulsion with addition of 0.5% additive at a water application rate of […] (converted). After the test plants had been kept in the greenhouse under optimum growth conditions for about 3 weeks, the activity of the preparations is rated visually in comparison to untreated controls. The tables below show the herbicidal activity of numerous compounds according to the invention against important harmful plants. For example, 100% activity=the plants have died, 0% activity=like control plants.

Veronica persica (VERPE) [2] = experiment: Post-emergence herbicidal action against VERPE; details: 20 g/ha, post-emergence at one-leaf stage, rated visually after about 3 weeks vs untreated controls
Experimental: as §1, with “VERPE: Veronica persica” for “AMARE: Amaranthus retroflexus”

Stellaria media (STEME) [3] = experiment: Pre-emergence herbicidal action against STEME; details: 80 g/ha, scored visually after about 3 weeks vs untreated controls
Description: (§2) STEME: Stellaria media 1. Pre-Emergence Herbicidal Action and Crop Plant Compatibility Seeds of monocotyledonous and dicotyledonous weed plants and crop plants are placed in plastic or organic planting pots and covered with soil. The compounds of the invention, formulated in the form of wettable powders (WP) or as emulsion concentrates (EC), are then applied onto the surface of the covering soil as aqueous suspension or emulsion with addition of 0.5% additive at a water application rate of […] (converted). After the treatment, the pots are placed in a greenhouse and kept under good growth conditions for the trial plants. After about 3 weeks, the effect of the preparations is scored visually in comparison with untreated controls as percentages. The tables below show the herbicidal activity of numerous compounds according to the invention against important harmful plants. For example, 100% activity=the plants have died, 0% activity=like control plants.

[4] = tested on: Amaranthus retroflexus (AMARE); experiment: Pre-emergence herbicidal action against AMARE; details: scored visually after about 3 weeks vs untreated controls
Description: as §2, with “AMARE: Amaranthus retroflexus” for “STEME: Stellaria media”

Stellaria media (STEME) [5] = experiment: Post-emergence herbicidal action against STEME; details: 20 g/ha, post-emergence at one-leaf stage, rated visually after about 3 weeks vs untreated controls
Experimental: as §1, with “STEME: Stellaria media” for “AMARE: Amaranthus retroflexus”

Veronica persica (VERPE) [6] = experiment: Pre-emergence herbicidal action against VERPE; details: 80 g/ha, scored visually after about 3 weeks vs untreated controls
Description: as §2, with “VERPE: Veronica persica” for “STEME: Stellaria media”

[7] = tested on: Echinochloa crus-galli (ECHCG); experiment: Post-emergence herbicidal action against ECHCG; details: 20 g/ha, post-emergence at one-leaf stage, rated visually after about 3 weeks vs untreated controls
Experimental: as §1, with “ECHCG: Echinochloa crus-galli” for “AMARE: Amaranthus retroflexus”

Viola tricolor (VIOTR) = experiment: Post-emergence herbicidal action against VIOTR; details: 20 g/ha, post-emergence at one-leaf stage, rated visually after about 3 weeks vs untreated controls
Experimental: as §1, with “VIOTR: Viola tricolor” for “AMARE: Amaranthus retroflexus”

Setaria viridis (SETVI) = experiment: Post-emergence herbicidal action against SETVI; details: 20 g/ha, post-emergence at one-leaf stage, rated visually after about 3 weeks vs untreated controls
Experimental: as §1, with “SETVI: Setaria viridis” for “AMARE: Amaranthus retroflexus”

[8] = tested on: Abutilon theophrasti (ABUTH); experiment: Post-emergence herbicidal action against ABUTH; details: 20 g/ha, post-emergence at one-leaf stage, rated visually after about 3 weeks vs untreated controls
Experimental: as §1, with “ABUTH: Abutilon theophrasti” for “AMARE: Amaranthus retroflexus”

Cn1ncc(C(=O)c2ccc(C(F)(F)F)c3c2SCS3(=O)=O)c1O [Example 1-85]
Post-emergence action against AMARE [1]: 90% | Post-emergence action against VERPE (Veronica persica (VERPE) [2]): 80% | Pre-emergence action against STEME (Stellaria media (STEME) [3]): 100% | Pre-emergence action against AMARE ([4]; 80 g/ha): 100% | Post-emergence action against STEME (Stellaria media (STEME) [5]): 80% | Pre-emergence action against VERPE (Veronica persica (VERPE) [6]): 90%

Cc1nn(C)c(O)c1C(=O)c1ccc(C(F)(F)F)c2c1SCS2 [Example 1-68]
Post-emergence action against AMARE [1]: 90% | Pre-emergence action against STEME (Stellaria media (STEME) [3]): 100% | Pre-emergence action against AMARE ([4]; 80 g/ha): 100% | Post-emergence action against ECHCG [7]: 80% | Post-emergence action against VIOTR (Viola tricolor (VIOTR)): 80%

CCn1ncc(C(=O)c2ccc(C(F)(F)F)c3c2OCS3)c1O [Example 1-18]
Post-emergence action against SETVI (Setaria viridis (SETVI)): 80% | Post-emergence action against ABUTH [8]: 80% | Pre-emergence action against AMARE ([4]; 320 g/ha): 100% | Post-emergence action against STEME (Stellaria media (STEME) [5]): 90% | Post-emergence action against ECHCG [7]: 80% | Post-emergence action against VIOTR (Viola tricolor (VIOTR)): 100%
